The subject of test [1] is Freund's Complete Adjuvant induced arthritis model of Sprague Dawley (SD) rats. Briefly: In-vivo anti-inflammatory activity of Composition-1, Freund's Complete Adjuvant induced arthritis model (Example 17). Conditions: Composition-1 200 mg/kg body weight, Prednisolone 10 mg/kg, daily for 35 days, vs CMC control. As for the experimental part: The in-vivo anti-inflammatory activity of composition-1, comprising the water extract of 50 g of Terminalia chebula, 25 g of methanol extract of Curcuma longa, 25 g of Boswellia serrata non-acidic resin extract (BNRE), so that their percentages in the composition are 50%, 25% and 25% respectively was evaluated by an in-vivo study in Freund's Complete Adjuvant induced arthritis model of Sprague Dawley (SD) rats.
(§1) Prednisolone was used as a positive control. The healthy male SD rats were selected and randomly divided into four groups containing six animals per group. The treatment group rats were supplemented daily with 200 mg/kg body weight of Composition-1 for 35 days. The positive control group was supplemented daily with Prednisolone at 10 mg/kg body weight. All supplements were diluted in 10 mL of 1% CMC for administration. The animals of control group received same volume of 1% CMC. At the 7th day, Freund's Complete Adjuvant (FCA) was injected subcutaneously in the sub-plantar region of the left hind paw of each animal. Paw volumes and weight bearing capacities were respectively measured using Plethysmography equipment and Incapacitance Meter on the day of FCA injection and on 35th day of treatment. The difference in volume of paw edema is considered as the inflammatory response. […]

For test [2], the system named is Freund's Complete Adjuvant induced arthritis model of Sprague Dawley rats. Briefly: In-vivo anti-inflammatory activity of Composition-7, Freund's Complete Adjuvant induced arthritis model (Example 18). To be noted: Composition-7 200 mg/kg body weight p.o., Prednisolone 10 mg/kg, daily for 35 days, vs CMC control.
Text: The in-vivo anti-inflammatory activity of composition-7, comprising the water extract of 36 g of Terminalia chebula, 18 g of methanol extract of Curcuma longa, 18 g of Boswellia serrata non-acidic resin extract (BNRE), 18 g of Boswellia serrata extract standardized to 75%-85% total acids by volumetric assay which contain 5% 3-O-acetyl-11-keto-β-boswellic acid (AKBA) and 10 g of excipients [Microcrystalline cellulose (MCC) and Syloid], so that their percentages in the composition are 36%, 18%, 18%, 18% and 10% respectively was evaluated by an in-vivo study in Freund's Complete Adjuvant induced arthritis model of Sprague Dawley rats.
as §1, with “Composition-7” for “Composition-1”, “At the 7th day, Freund's Complete Adjuvant (FCA) was injected subcutaneously in the sub-plantar region of the left hind paw of each animal.” left out, “treatment.” for “treatment. The difference in volume of paw edema is considered as the inflammatory response.”

The structures appear in SMILES notation.

Take `C[C@]12C=CC(=O)C=C1CC[C@@H]1[C@@H]2[C@@H](O)C[C@@]2(C)[C@H]1CC[C@]2(O)C(=O)CO` [Prednisolone]: the “% inhibition of Paw edema” value in test [1] turned out to be 72.73%; in test [2], 68.67%.

The values are drawn from patent US20210205401A1, “SYNERGISTIC DIETARY SUPPLEMENT COMPOSITIONS FOR THE PREVENTION, TREATMENT OR CONTROL OF INFLAMMATORY DISORDERS” (LAILA NUTRACEUTICALS, priority 2014, published 2021).
